Results reported in patent US20100249419A1, “UTILIZATION OF NOVEL COMPOUNDS WITH AMYLOID AFFINITY AND METHOD OF PRODUCING THE SAME” (NIHON MEDI-PHYSICS CO., LTD., priority 2007, published 2010).

Key:
[1] = molecular target: T1, aggregated amylin (amyloid) (Homo sapiens, UniProt P10997); experiment: Inhibition of binding of Thioflavin T to amyloid derived from amylin; details: Thioflavin T 5 μmol/L
T1 construct: Amylin (human) (manufactured by Wako); purchased Wako
T1 sequence (P10997 34-70 limits assumed): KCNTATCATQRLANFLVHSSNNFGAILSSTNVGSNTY
Procedure: Amylin is an amyloid accumulating in pancreas of type II diabetes.
(1) Amylin (human) (manufactured by Wako) was dissolved in phosphate buffer (pH 7.4) and shaken at 37° C. for 72 hours, to obtain a 1 mg/mL suspension of aggregated amylin (hereinafter referred to as amyloid suspension in this Example).
(2) According to the method described in a literature (Naiki, H., et al., Laboratory
(3) The amyloid suspension was dissolved in 50 mM phosphate buffer (pH 7.4) at a concentration of amylin of 15 μM.
(4) Samples in which each compound for evaluation and amyloid were dissolved in a 50 mM phosphate buffer (pH 7.4) at final concentrations shown in Table 9 were prepared.
(5) A sample in which 100 μL of 50 mM phosphate buffer (pH 7.4) and 50 μL of 50 mM glycin-NaOH buffer were mixed was made as a blank, and subjected to the same procedure as in (4) and used for a calculation of inhibition ratio.
(6) The microplate filled with the sample solutions was left to stand still at room temperature for 30 hours.
(7) Using the fluorescence strength measured above in (6), the following formula (6): […]
was used to determine the inhibition ratio.

[2] = Partition coefficient based on the octanol extraction method; assay type: physicochemical; details: octanol / 10 mmol/L phosphate buffer (pH 7.4)
Procedure: Partition coefficients based on the octanol extraction method (hereinafter referred to as log Poctanol) were measured, which are generally known as an indicator of permeability of compounds through the blood-brain barrier (hereinafter referred to as BBB).
A diethyl ether solution of Compound 1 prepared in Example 3 (Example 8), a diethyl ether solution of Compound 2 prepared in Example 6 (Example 9), and a diethyl ether solution of [^123I]-IMPY prepared in Reference Example 1 (Comparative Example 4) were each diluted with 10 mg/mL ascorbic acid-containing physiological saline solution, and adjusted to a radioactive concentration of 20-30 MBq/mL. To 2 mL of octanol, 10 μL each of the prepared sample solutions was added, 2 mL of 10 mmol/L phosphate buffer (pH 7.4) was added, followed by stirring for 30 seconds. After the mixture was centrifuged with a low-speed centrifuge (2000 rpm×60 min.), the octanol layer and the water layer were sampled each in an amount of 1 mL, and subjected to measurement of radioactivity count with an autowell gamma system (Type: ARC-301B, manufactured by Aloka). Using the obtained radioactivity count, log Poctanol was calculated in accordance with the equation (2).
A diethyl ether solution (Example 20) of Compound 4 prepared in Example 16, a diethyl ether solution (Example 21) of Compound 6 prepared in Example 19, and a diethyl ether solution (Comparative Example 7) of [^123I]-IMPY were each diluted with a 10 mg/mL ascorbic acid-containing physiological saline solution to adjust to a radioactive concentration of 20-30 MBq/mL. To 2 mL of octanol, 10 μL each of the prepared sample solution was added, and 2 mL of 10 mmol/L phosphate buffer (pH 7.4) was further added, followed by stirring for 30 seconds. After the mixture was centrifuged with a low-speed centrifuge (2000 rpm×60 min.), the octanol layer and the water layer were sampled each in an amount of 1 mL, and subjected to measurement of radioactivity count with an autowell gamma system (Type: ARC-301B, manufactured by Aloka). Using the obtained radioactivity count, logPoctanol was calculated in accordance with the equation (4).

[3] = molecular target: T2, β2-microglobulin amyloid (Homo sapiens, UniProt P61769); experiment: In vitro binding of labeled compound to β2-m-amyloid (glass fiber filter); details: β2-m-amyloid 0.8 μg/mL, 22° C., 3 hours
T2 construct: purchased Oriental Yeast Co., ltd
Procedure: β2-microglobulin with cross -sheet structure was prepared by the following procedures (5) and (6) which was the method described in the known literature (Ohhashi, Y. et al., Journal of Biological Chemistry. 280, p. 32843-32848 (2005)) to which a little modification was made. […]
(8) A solution of Compound 1 which was synthesized by the method above in Example 3 was prepared (radioactivity of 500 MBq/mL), and diluted with a 0.1% bovine serum albumin-containing phosphate buffer (pH 7.4) to prepare a solution of 1.2-112.9 pM in terms of the total amount of 2-[4′-(2″-hydroxyethoxy)phenyl]-6-iodoimidazo[1,2-a]pyridine. […]
(11) The glass fiber filter used for the filtration of the mixture was washed with a 0.1% bovine serum albumin-containing phosphate buffer (0.2 mL×5), and radioactivity of the glass fiber filter was measured with an autowell gamma system (manufactured by Aloka, Type: ARC-7001).
(12) From the measurement results of (11), relation between the amount of Compound 1 binding to amyloid and addition amount of amyloid was evaluated. For a non-specific binding, it was determined from a sample in which no amyloid suspension was added above in (9) (Example 36). […]

T2 sequence (P61769 21-119): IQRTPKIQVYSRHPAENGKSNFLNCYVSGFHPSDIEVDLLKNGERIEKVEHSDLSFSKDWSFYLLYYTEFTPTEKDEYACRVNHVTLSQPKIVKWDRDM

Substance	Inhibition ratio (%) of binding of amyloid (amylin) to Thioflavin T ([1]; compound 1.5 μmol/L) [%]	Inhibition ratio (%) of binding of amyloid (amylin) to Thioflavin T ([1]; compound 15 μmol/L) [%]	Inhibition ratio (%) of binding of amyloid (amylin) to Thioflavin T ([1]; compound 30 μmol/L) [%]	logPoctanol value ([2]; Table 4, Examples 8-9)	Radioactivity of the glass fiber filter versus amyloid non-added group [3]	logPoctanol value ([2]; Table 6, Examples 20-21)
2-(4′-ethoxyphenyl)-6-[^123I]iodoimidazo[1,2-a]pyridine [Compound 2]	37.1	46.9	53.0	2.1	–	–
2-[4′-(3″-hydroxypropoxy)phenyl]-6-[^123I]iodoimidazo[1,2-a]pyridine [Compound 6]	–	–	–	–	all high compared to the group without amyloid suspension	2.1
2-[4′-(2″-hydroxyethoxy)phenyl]-6-[^123I]iodoimidazo[1,2-a]pyridine [Compound 1]	34.4	51.3	46.8	1.8	all high compared to the group without amyloid suspension	–
